Laboratory results reported in patent US5821046A, “RNA oligonucleotides that bind HIV tat protein” (RiboTargets Holdings PLC, priority 1990, dated 1998).
“Also recorded” adds a separate entry of the source. Where two headings read alike, the source gives them in different places. [4sT] = 4-thio-2'-deoxythymidine; [5BrU] = 5-bromo-2'-deoxyuridine; d = 2'-deoxy (DNA); r = 2'-OH (RNA)

Columns and labels:
tat protein = experiment: competition filter binding assay with chemically synthesized RNA (Table 4); design: species or system HIV-1; settings: for IC50: 40 nM tat, read-out: D1/2; for competition for tat binding compared with unmodified RNA: competition filter binding, FIGS. 19, 21-24, 26; for drop in D1/2 compared with unmodified duplex: modified 17-mer + 14-mer duplex
Experimental: Competition binding reactions (0.5ml) in TK buffer (50 mM Tris.HCl(pH7.9 at 0.5M and 22° G), 20 mM KCl ) included 10nM ^32 p labeled 59-mer (ca. 20,000 cpm) , 40nM tat protein, 5 ug/ml calf thymus DNA, 2 ug/ml yeast tRNA, 40 units of RNAsin (Promega) and varying concentrations (0-300 nM) of unlabeled competitor RNA (59-mer [SEQ ID NO: 1; ], 29-mer [SEQ ID NO: 12] or preannealed (slow cooled from 90° C.) 14-mer [SEQ ID NO: 14; nucleotides 2-15] and 17-mer [SEQ ID NO: 13; nucleotides 1- 17]). Binding was allowed to take place for 2-15 minutes on ice and each reaction was filtered through a twice prewashed (0.6 ml of ice-cold TK buffer) Millipore GS filter (2.5 cm disks, 0.22 um pore) and the filter washed with TK buffer (0.6 ml). Dried filters were counted by liquid scintillation. Results were plotted on a graph (FIG. 19) showing counts retained on the filter versus the concentration of competitor RNA added.
Competition binding reactions (0.5 ml) in TK buffer included 10 nM duplex formed from ^32 P-labeled and unlabeled 29-mer (ca. 20,000 cpm) or 10 nM duplex formed from ^32 P-labeled and unlabeled 17-mer annealed to unlabeled 14-mer, 40 nM tat protein, 5 ug/ml calf thymus DNA, 2 ug/ml yeast tRNA and varying concentrations (0-120 nM) of unlabeled competitor RNA (29-mer or modified 29-mer (FIG. 21), or 17-mer +14-mer duplex or modified 7-mer +14-mer duplex (22, 23 and 24) and were carried out as described above.
Competition binding reactions (0-5 ml) in TK buffer included 10 nM duplex formed from ^32 P-labelled (ca. 20,000 cpm) and unlabelled 18-mer [SEQ ID NO: 13] annealed to unlabelled 15-mer [SEQ ID NO: 14], 40 nM tat protein, 5 ug/ml calf thymus DNA, 2 ug/ml yeast TRNA and varying concentrations (0-120 nM) of unlabelled competitor RNA (59-mer [SEQ ID NO: 1] or 18-mer [SEQ ID NO: 13]+15-mer [SEQ ID NO: 14] duplex, or modified 18-mer [SEQ ID NO: […]

HIV-1 Tat = HIV-1 Tat (Human immunodeficiency virus 1, UniProt P04608 P04608:1-86); experiment: competition; D1/2; wild type 90 nM
[1] = 32P-end-labelled 29-mer 10 nM, competitor 0-120 nM
[2] = relative to 29-mer, 32P-end-labelled 29-mer 10 nM
[3] = 32P-end labelled 18-mer annealed to 15-mer
[4] = 32P-end labelled 18-mer annealed to 15-mer 10 nM, competitor 0-120 nM
[5] = relative to 14 +17 duplex, 32P-end labelled 18-mer annealed to 15-mer
[6] = BrdU series, relative to 14 +17 duplex
[7] = BrdU series, 32P-end-labelled 29-mer 10 nM, competitor 0-120 nM
[8] = 32P-end-labeled 17-mer annealed to 14-mer 10 nM, competitor 0-120 nM (dT series)
[9] = relative to 14 +17 duplex, 32P-end-labeled 17-mer annealed to 14-mer
[10] = 32P-labeled 59-mer transcript 10 nM

2'-OmeU-23: chemically synthesized 29-mer where U23 is replaced by 2'-O-methyluridine (GCCAGANUUGAGCCUGGGAGCUCUCUGGC; 2'-O-methyluridine at U23, chemistry not fully specified)
IC50 (tat protein; [1]): 50 nM | competition for tat binding compared with unmodified RNA (tat protein; listed as SEQ ID NO: 16): competed as well as as unmodified 29-mer; also recorded: competes for tat binding as well as unmodified 29-mer | Krel (29 or 14 +17) (tat protein; [2]): 1.2

4-thioT-24: 15-mer annealed to 18-mer where U24 is replaced by 4-thio-2'-deoxythymidine (AGCCAGAUTUGAGCAGCU; sugars from the 5' end r8 d1 r9, [4sT] at 9, backbone not given here; annealed to 15-mer strand)
Krel (59-mer) (tat protein; [3]): 0.7 | IC50 (tat protein; [4]): 25 nM | competition for tat binding compared with unmodified RNA (tat protein): competes for binding better than unsubstituted duplex | Krel (29 or 14 +17) (tat protein; [5]): 2.0

4-thioT-25: 15-mer annealed to 18-mer where U25 is replaced by 4-thio-2'-deoxythymidine (AGCCAGAUUTGAGCAGCU; DNA at 10, [4sT] at 10, other sugars and backbone not given here; annealed to a 15-mer strand, further chemistry not fully specified)
Krel (59-mer) (tat protein; [3]): 1.5 | IC50 (tat protein; [4]): 12 nM | competition for tat binding compared with unmodified RNA (tat protein; listed as SEQ ID NO: 25): competes for binding better than unsubstituted duplex; also recorded: competes as well as unmodified 59-mer | Krel (29 or 14 +17) (tat protein; [5]): 4.2

15 +18: duplex of unmodified 18-mer [SEQ ID NO: 13] and 15-mer [SEQ ID NO: 14] containing a U-rich bulge (chain 1 AGCCAGAUUUGAGCAGCU; chain 2 AGCUGCUCUCUGGCU; RNA, phosphodiester; duplex with U-rich bulge)
Krel (59-mer) (tat protein; [3]): 0.3 | IC50 (tat protein; [4]): 65 nM | competition for tat binding compared with unmodified RNA (tat protein): competed as well as 17-mer | Krel (29 or 14 +17) (tat protein; [5]): 0.8

BrdU-23: 14-mer annealed to 17-mer where U23 is replaced by 5-bromo-2'-deoxyuridine (AGCCAGAUUUGAGCAGC; DNA at 8, [5BrU] at 8, other sugars and backbone not given here; annealed to a 14-mer strand, further chemistry not fully specified)
Krel (29 or 14 +17) (tat protein; [6]): 0.6 | IC50 (tat protein; [7]): 70 nM | competition for tat binding compared with unmodified RNA (tat protein): competes for tat binding less well | drop in D1/2 compared with unmodified duplex (tat protein): 2 fold

BrdU-24: 14-mer annealed to 17-mer where U24 is replaced by 5-bromo-2'-deoxyuridine (AGCCAGAUUUGAGCAGC; DNA at 9, [5BrU] at 9, other sugars and backbone not given here; annealed to a 14-mer strand, further chemistry not fully specified)
Krel (29 or 14 +17) (tat protein; [6]): 1.0 | IC50 (tat protein; [7]): 45 nM | competition for tat binding compared with unmodified RNA (tat protein): no effect on competition | competition for tat binding compared with unmodified RNA (tat protein; listed as SEQ ID NO: 21): competes as well compared to unsubstituted duplex

BrdU-25: 14-mer annealed to 17-mer where U25 is replaced by 5-bromo-2'-deoxyuridine (AGCCAGAUUUGAGCAGC; sugars from the 5' end r9 d1 r7, [5BrU] at 10, backbone not given here; annealed to 14-mer strand)
Krel (29 or 14 +17) (tat protein; [6]): 1.1 | IC50 (tat protein; [7]): 35 nM | competition for tat binding compared with unmodified RNA (tat protein): no effect on competition | competition for tat binding compared with unmodified RNA (tat protein; listed as SEQ ID NO: 22): competes for tat binding as well compared to unsubstituted duplex

dT-23: 14-mer annealed to 17-mer where U23 is replaced by 2'-deoxythymidine (AGCCAGANUUGAGCAGC; 2'-deoxythymidine at 23, annealed 14-mer without entry, chemistry not fully specified)
IC50 (tat protein; [8]): 35 nM | competition for tat binding compared with unmodified RNA (tat protein): no effect on competition | competition for tat binding compared with unmodified RNA (tat protein; listed as SEQ ID NO: 17): competes for tat binding as well as unmodified duplex | Krel (29 or 14 +17) (tat protein; [9]): 1.1

dT-24: 14-mer annealed to 17-mer where U24 is replaced by 2'-deoxythymidine (AGCCAGAUNUGAGCAGC; 2'-deoxythymidine at 24, annealed 14-mer without entry, chemistry not fully specified)
IC50 (tat protein; [8]): 30 nM | competition for tat binding compared with unmodified RNA (tat protein): no effect on competition | competition for tat binding compared with unmodified RNA (tat protein; listed as SEQ ID NO: 18): competes for tat binding as well as unmodified duplex | Krel (29 or 14 +17) (tat protein; [9]): 1.2

dT-25: 14-mer annealed to 17-mer where U25 is replaced by 2'-deoxythymidine (AGCCAGAUUNGAGCAGC; 2'-deoxythymidine at 25, annealed 14-mer without entry, chemistry not fully specified)
IC50 (tat protein; [8]): 90 nM | competition for tat binding compared with unmodified RNA (tat protein): competes less well compared to unmodified duplex | drop in D1/2 compared with unmodified duplex (tat protein): 2-3 fold | Krel (29 or 14 +17) (tat protein; [9]): 0.4

dU-23: chemically synthesized 29-mer where U23 is replaced by 2'-deoxyuridine (GCCAGANUUGAGCCUGGGAGCUCUCUGGC; 2'-deoxyuridine at 23, chemistry not fully specified)
IC50 (tat protein; [1]): 55 nM | competition for tat binding compared with unmodified RNA (tat protein; listed as SEQ ID NO: 15): competed as well as as unmodified 29-mer; also recorded: competes for tat binding as well as unmodified 29-mer | Krel (29 or 14 +17) (tat protein; [2]): 1.1

r(GCCAGAUUUGAGCCUGGGAGCUCUCUGGC) (RNA, backbone not given here) [29-mer, chemically synthesized 29-mer, top part of TAR including loop and U-rich bulge]
IC50 (tat protein; [1]): 60 nM | Krel (59-mer) (tat protein; [10]): 0.4 | increase in D1/2 compared with 59-mer (tat protein; [10]): 2-3 fold | IC50 (tat protein; 32P-labeled 59-mer transcript 10 nM, competitor 0-300 nM): 100 nM | competition for tat binding compared with unmodified RNA (tat protein): competes for binding to tat almost as well as a 59-mer RNA transcript | Krel (29 or 14 +17) (tat protein; [2]): 1.0

B1: TAR bulge CC (ssRNA)
RNA: GGGUCUCUCUGGUUAGACCAGACCGAGCCUGGGAGCUCUCUGGCUAACUAGGGAACCC
IC50 (HIV-1 Tat): 2370 nM

B2: TAR bulge CUU (ssRNA)
RNA: GGGUCUCUCUGGUUAGACCAGACUUGAGCCUGGGAGCUCUCUGGCUAACUAGGGAACCC
modifications: [23]
IC50 (HIV-1 Tat): 630 nM

B3: TAR bulge CCC (ssRNA)
RNA: GGGUCUCUCUGGUUAGACCAGACCCGAGCCUGGGAGCUCUCUGGCUAACUAGGGAACCC
modifications: [23,24,25]
IC50 (HIV-1 Tat): 1780 nM

B4: TAR U40 to A40 (ssRNA)
RNA: GGGUCUCUCUGGUUAGACCAGAUUUGAGCCUGGGAGCUCACUGGCUAACUAGGGAACCC
IC50 (HIV-1 Tat): 5620 nM

B5: TAR bulge CCU (ssRNA)
RNA: GGGUCUCUCUGGUUAGACCAGACCUGAGCCUGGGAGCUCUCUGGCUAACUAGGGAACCC
modifications: [23,24]
IC50 (HIV-1 Tat): 1330 nM

B6: TAR bulge CUC (ssRNA)
RNA: GGGUCUCUCUGGUUAGACCAGACUCGAGCCUGGGAGCUCUCUGGCUAACUAGGGAACCC
modifications: [23,25]
IC50 (HIV-1 Tat): 2140 nM

B7: TAR bulge U (ssRNA)
RNA: GGGUCUCUCUGGUUAGACCAGAUGAGCCUGGGAGCUCUCUGGCUAACUAGGGAACCC
modifications: [23-25]
IC50 (HIV-1 Tat): 673 nM
